# Legend:
# tumour = assay: local delivery of rhodamine on an implant; assay type: in vivo; conditions: delivering 40 or 50 mg locally on implant
# From the text: Furthermore, the lethal dose can be greatly exceeded. […] Such a dose, delivered systemically, would require 100 g of rhodamine, more than 1000 times the lethal dose.
# [1] = maximal tolerated dose of Rhodamine 123 delivered intravenously in man; assay type: in vivo; conditions: 70 kg patient, each injection
# Method: Because inhibitors of oxidative phosphorylation are toxic to a subject in the doses needed for efficacy via the systemic route, such inhibitors have been largely overlooked for effective treatment of conditions such as cancer. […] It is also known that the maximal tolerated dose of Rhodamine 123 delivered intravenously in man is 95 mg/m^2. For a 70 kg patient, the tolerated dose of systemically delivered rhodamine is about 150 mg for each injection.
# prostate tumours = conditions: clinical trial, cited from earlier work
substance,measurement,setting,value
rhodamine,tumour outcome,tumour,leads to tumour death
same,tolerated dose of systemically delivered rhodamine,[1],about 150 mg
same,effect on prostate tumours,prostate tumours; maximum non-lethal systemic doses,did not shown any significant effect
same,accumulation in the prostate of the patients,prostate tumours; systemic delivery,accumulation was confirmed

# — patent publication US20070292478A1 (priority 2004, published 2007)
